Assay results as given in patent US7566553B2, “Microorganism of Escherichia Sp, or Corynebacterium Sp, comprising foreign NADP dependent glyceraldehyde-3-phosphate dehydrogenase gene and method for producing L-lysine using the same” (CJ Corporation, priority 2004, dated 2009).

Key:
Experiment in all cases: Resistance against lysine analogue AEC, relative growth rate in M9 minimum medium
Format in all cases: cell-based, Escherichia coli
[1] = tested on: E. coli strain TF1; details: strain TE1 (so in the source), absorbance at 562 nm, relative to growth at zero AEC
Experimental: (§1) An Escherichia coli strain TF1 (Korean laid-open Patent No. 1992-0012444) was grown until the strain entered an exponential growth phase and suspended in a 0.1M phosphate buffer (pH 7.0) or 0.1M citrate buffer solution (pH 5.5). N-methyl-N′-nitro-nitrosoguanidine was added into the suspension to a final concentration of 200-500 μg/mL, reacted at 30° C. for 10-30 minutes, and inoculated into a minimum agar plate containing 1-30 g/L of a lysine analogue (AEC: S-(2-aminoethyl)-L-cysteine) to select an analogue-resistant strain. This strain was named “CJ40225”. The resistance of the strain against the lysine analogue was tested using an M9 minimum medium, and the relative growth rate was measured.
(§2) The used M9 minimum medium contained 4 g of glucose, 12.8 g of Na2HPO4.7H2O, 3 g of KH2PO4, 0.5 g of NaCl, and 1 g of NH4Cl per 1 liter of water.

[2] = tested on: Wild type E. coli strain W3110; details: absorbance at 562 nm, relative to growth at zero AEC
Experimental: as §1, §2

[3] = tested on: E. coli strain CJ40225; details: absorbance at 562 nm, relative to growth at zero AEC
Experimental: as §1, §2

Compound: NCCSC[C@H](N)C(=O)O [AEC, S-(2-aminoethyl)-L-cysteine]
- Relative Growth Rate (%) ([1]; added AEC 5 g/L): 103.5%
- Relative Growth Rate (%) ([1]; added AEC 10 g/L): 128.9%
- Relative Growth Rate (%) ([1]; added AEC 20 g/L): 112.5%
- Relative Growth Rate (%) ([1]; added AEC 40 g/L): 17.5%
- Relative Growth Rate (%) ([2]; added AEC 5 g/L): 66.3%
- Relative Growth Rate (%) ([2]; added AEC 10 g/L): 39.8%
- Relative Growth Rate (%) ([2]; added AEC 20 g/L): 7.4%
- Relative Growth Rate (%) ([3]; added AEC 5 g/L): 124.3%
- Relative Growth Rate (%) ([3]; added AEC 10 g/L): 88.4%
- Relative Growth Rate (%) ([3]; added AEC 20 g/L): 89.2%
- Relative Growth Rate (%) ([3]; added AEC 40 g/L): 73.9%
